“Also recorded” adds a separate entry of the source.
How the values were obtained:
[1] = toxicity to animals: highest non-lethal dose given ip to ICR mice; details: mouse, in vivo
Protocol: (§1) The above mentioned thiosemicarbazone compounds were finally powdered and suspended in dimethylsulfoxid (DMSO)-(Merck) to get stock solutions of 10 mg/ml. Stock solutions were diluted to a final volume of 0.25 ml DMSO to obtain the following concentrations: 2,5 mg, 2 mg; […], 1 mg, in 0.25 ml final volume.
(§2) Each drug concentration of the 4 thiosemicarbazone derivatives was injected in a sterile manner intraperitonally (iP) to a group of 10 ICR mice, each weighing 20 g. After one injection the mice were followed for the highest non-lethal dose, and for the lethal dose. The results are an average of three separate trials.

[2] = toxicity to animals: Lethal Dose-50 given ip to ICR mice; details: mouse, in vivo, ICR mice 20 g, one injection, average of three separate trials, Table 3
Protocol: as §1, §2

[3] = system: Abelson-Moloney murine leukemia virus (Ab-MoMuLV) induced B-lymphoma; test: antiviral effect in mice against B-lymphoma induced by Ab-MoMuLV; assay type: in vivo; details: daily dose of 2 μg/4 g weight for 10 consecutive days, immediately after infection, versus untreated mice
Protocol: One of the three compounds, namely M-IBDET was examined as to its efficacy against the Abelson-Moloney murine leukemia virus (Ab-MoMuLV). Injection of susceptible mice with B-cell lymphocytes infected with Ab-MoMuLV usually results in induction of B-type lymphoma within 3 weeks. Treatment of mice immediately after infection with MoMuLV infected cells with M-IBDET at a daily dose of 2 μg/4 g weight for 10 consecutive days caused a delay of 3 weeks in the appearance of the lymphoma in the drug-treated mice as compared with untreated mice.

Moloney leukemia virus = details: literature refs (1-3); cited from earlier work
EIAV = test: inhibition of EIAV production in chronically infected fibroblast cells; assay type: cell-based; details: 2 hrs then 1:10 dilution, further 24 hours
Protocol: Fibroblast cells of […] chronically infected with EIAV were incubated for 2 hrs with concentrations ranging from 17 μM to 34 μM of the described thiosemicarbazone compounds. Subsequently the medium was diluted 1:10 to obtain a final concentration of ranging from 1.7 to 3.4 μM. The cultures were further incubated for 24 hours and virus production was assayed in drug-treated and untreated cells. The extent of inhibition of virus production in the treated cultures was 70-80%. M-IBT was tested and found to be ineffective.

[4] = system: viruses listed in Table I; assay type: cell-based, Mouse, Avian, Human cells; details: 34 μM, 18 hrs (such conditions of treatment)
[5] = system: viruses belonging to the Retroviridae family; test: inhibition of virus production of Retroviridae in infected cells (summary); assay type: cell-based; details: tested by applicant
Protocol: The thiosemicarbazone compounds described in this invention, were found by us to be specific inhibitors of viruses belonging to the Retroviridae family. Results obtained in our laboratory indicate that amounts ranging from 17 μM to 34 μM of the thiosemicarbazones suppressed specifically the production of viruses belonging to the Retroviridae family. The extent of inhibition of virus production in the infected cells was 75-85%. This inhibition was confirmed by various parameters of virus assay such as: reverse transcriptase activity, virus infectivity and contents of viral structural proteins.

[6] = system: human immunodeficiency virus--HIV; test: inhibition of HIV production in chronically infected H9 and HuT-78 cell lines; assay type: cell-based, human cell lines; details: evaluated in a similar manner (2 hrs, then 1:10 dilution, 24 hrs)
Protocol: The thiosemicarbazone compounds were examined for their inhibitory effect on the human immunodeficiency virus--HIV in the following chronically infected cell lines:
H9 cell line--A human established T-cell line chronically infected with HIV;
HuT-78 cell line--A human cell line chronically infected with ARV2 (HIV).
concentrations of 5×10^6 cells per ml were incubated with 17-34 μM of the different thiosemicarbazones. Virus production was assayed in the drug-treated and untreated cells after 7 hrs of exposure. An 85% inhibition of virus production was found in the drug-treated cultures as compared to control untreated cultures. Virus production was determined by assaying various virus parameters such as reverse transcriptase activity, plaque forming units (PFU) and viral structtural protein content.
The compounds were also tested by employing a different way of treatment of the HIV infected cultures: 5×10^6 infected cells were incubated with 17-34 μM of the drug for 2 hrs. Subsequently a dilution of 1:10 of the medium was performed to final concentration of 1.7-3.4 μM of the drug. The cultures were further incubated for 24 hrs in diluted medium and virus production was assayed. The extent of inhibition of HIV production achieved by the described treatment was 75-85%. M-IBT was evaluated in a similar manner.

[7] = system: pox-virus family (smallpox); details: oral, 40 mg/kg for 4 consecutive days; cited from earlier work
[8] = ICR mice 20 g, one injection, average of three separate trials, Table 2

Row | SMILES | MTD [1, 8] [mg/kg] | LD50 [2] [mg/kg] | delay in the appearance of the lymphoma [3] [weeks] | inhibition of production of Moloney leukemia virus (Moloney leukemia virus) | effectiveness against EIAV (EIAV) | MTD ([1]; ICR mice 20 g-weight) [mg/kg] | effectiveness on virus infectivity [4] | effectiveness against viruses of the Retroviridae [5] | inhibition of HIV production [6] | clinical effectiveness against pox virus / smallpox [7]
1 | C=CCN1C(=O)C(=NNC(=S)N(C)C)c2ccccc21 [A-IBDMT, 1-allylisatin-β-4':4'-dimethylthiosemicarbazone] | 100 | 175 |  |  |  |  |  |  |  | 
2 | C=CCN1C(=O)C(=NNC(=S)N(CC)CC)c2ccccc21 [A-IBDET, 1-allylisatin-β-4':4'-diethylthiosemicarbazone] | 100 | 175 |  |  |  |  |  |  |  | 
3 | CCN(CC)C(=S)NN=C1C(=O)N(C)c2ccccc21 [M-IBDET, 1-methylisatin-β-4':4'-diethylthiosemicarbazone] | 50 | 125 | 3 | inhibits the production of Moloney leukemia virus |  |  |  |  |  | 
4 | CN1C(=O)C(=NNC(N)=S)c2ccccc21 [M-IBT, N-methylisatine 3-thiosemicarbazone] |  | 125 |  |  | ineffective | 50 | not effective | ineffective | No inhibition could be detected | effective in the treatment of humans against smallpox; also recorded: effective against subjects known to have contact with smallpox; also recorded: effective results; also recorded: clinically effective
